Measured values taken from publication PMC8038054, “Bis-3-Chloropiperidines Targeting TAR RNA as A Novel Strategy to Impair the HIV-1 Nucleocapsid Protein” (Molecules, 2021).

Assays:
[1] = system: recombinant full-length HIV-1 NC; experiment: High-throughput screening (HTS): inhibition of NC-mediated melting of TAR RNA hairpin; type: biochemical; details: 0.1 μM TAR, 0.8 μM NC, compound pre-incubated 37 °C 2 h; mean of three experiments; read-out: IC50, inhibition of NC-mediated melting of individual TAR RNA hairpin
Experimental: This assay is based on the doubly labeled TAR construct used above in the FQA experiments and is extensively employed to screen for inhibitors of NC melting activity. After preliminary controls to ensure the absence of direct quenching activity by the compounds under investigation, their ability to inhibit TAR RNA melting was evaluated in the presence of recombinant full-length HIV-1 NC. By adding increasing amounts of B-CePs, we determined the concentration of each compound that induced a 50% reduction in the destabilizing activity of NC (i.e., IC50) on TAR.
High-throughput screening (HTS) was performed to identify the inhibitors of NC chaperone activity on TAR. We used a VictorIII (PerkinElmer) microplate reader with 485 and 535 nm as the excitation and emission wavelengths. The TAR RNA hairpin was formed by snap cooling in the 1× BPE buffer, as described above. A 1 μM aliquot of TAR, which bore 5′-FAM and 3′-DAB modifications, was folded in 1× BPE buffer. The samples were then diluted to 0.1 μM in 1× BPE buffer. Increasing concentrations of compound (0, 0.1, 0.5, 1, 5, 10, 50, 100 μM final) were added to each sample and incubated at 37 °C for 2 h before introducing NC to a final concentration of 0.8 μM (for a 1:8 oligo to NC molar ratio). The plate was immediately read at room temperature three times with 1 min intervals, unless differently specified. The experimental data were fitted as reported earlier to enable calculation of the respective IC50 value.16 Each experiment was performed in triplicate to calculate an average and standard deviation.

TAR RNA [2] = experiment: ESI-MS of reaction mixtures of B-CePs with TAR; type: binding, HIV-1
Source text: To elucidate the molecular details of the products observed by PAGE, we further characterized the outcome of the reaction with TAR by electrospray ionization-mass spectrometry (ESI-MS). A preliminary determination was accomplished on the individual TAR construct, and a representative ESI-MS spectrum is provided in Figure 4A. Only the region containing the 5-charge state is shown for the sake of clarity. The detected species labelled [TAR-5H]^5− in Figure 4A afforded an experimental mass of 9286.25 Da, which matches the monoisotopic value of 9286.24 Da calculated from the RNA sequence very closely (Table 1). Successively, we performed the experiment by reacting compound 1 with TAR at 1 μM. After 2 h of incubation, at 37 °C, the reaction mixture was submitted to ethanol precipitation to achieve quenching and desalting, which enabled a direct infusion ESI-MS analysis. […] In the presence of nucleic acids, aziridinium preferentially attacks N7 of guanines on the substrate, forming different types of adduct (Scheme S1 in Supplementary Materials).^22 Analyzing a new species in Figure 4B, their masses matched those of products generated by either mono- or bis-alkylation reactions. The species TAR + 1B, displaying a mass of 9548.49 u, corresponded to bi-functional adducts formed by the reaction of both 3-chloropiperidine reactive moieties with the RNA strand (labelled [TAR + 1B − 5H]^5− in the inset in Figure 4B). Differently, TAR + 1M species with a mass of 9566.49 u was assigned to mono-functional adducts, in which only one of the 3-chloropiperidines reacted with the substrate, whereas the other was hydrolyzed to 3-hydroxyl by the aqueous environment (labelled [TAR + 1M − 5H]^5− in the inset in Figure 4B). Table 1 summarizes the experimental and calculated masses of the new products and provides the assignment of the various species detected in Figure 4B.
Figure 4 Representative electrospray-ionization mass spectrometry (ESI-MS) spectra of reaction mixtures obtained by incubating TAR (1 μM) with increasing B-CeP 1 (A:0, B:1, C:10, D:50 μM) at 37 °C for 2 h in a BPE buffer (pH 7.4). The spectra B–D show the concentration-dependent reactions induced by B-CeP 1 on TAR. Greater stoichiometries corresponding to combinations of mono- and bi-functional adducts, were detected and indicated in orange in the figure. The spectra were recorded in 150 mM ammonium acetate. Lower intensity signals near free/adducted species consist of typical sodium and ammonium adducts. Only region containing the 5-charge state is shown for the sake of clarity.
The results shown in Figure 4C,D show the reaction products obtained, further increasing the concentration of compound 1, with 1 μM TAR solution incubated with 10 and 50 μM of B-CeP 1, respectively. […]

[3] = cited from earlier work
TAR RNA [4] = experiment: Fluorescence quenching assay (FQA): thermal melting of TAR RNA hairpin; type: binding, HIV-1; details: 10 μM compound, 1 μM TAR, 37 °C 2 h, BPE buffer
Source text: A first insight into the putative interaction of B-CePs with RNA was offered by the investigation of the ability of the selected compounds to stabilize the TAR hairpin structure. We employed fluorescence quenching assays (FQA) to measure the ability of each B-CeP to modify the thermal denaturation profile of the TAR construct shown in Figure 1A, which was functionalized at both termini with a fluorophore-quencher couple. In this way, thermal melting of the structure can be assessed from the intensity of the detected fluorescence signal. The melting profile of TAR in the presence of increasing concentrations of each compound allowed an evaluation of the shift in melting temperature (ΔTm) from the reference value, which was determined in the absence of compound. Sample solutions contained 1 μM of RNA substrate and 10, 50 or 100 μM of each B-CePs compound. Figure 2 summarizes the values of ΔTm obtained by adding increasing concentrations of B-CePs 1–5. […]
The ability of the tested compounds to stabilize the TAR RNA structure was measured by the increase in the melting temperature of the oligoribonucleotide in the presence of different concentrations of each compound. […] Fluorescence emission of FAM was read by using a Light Cycler 480 II (Roche, Basel, CH) with emission at λ = 510 nm and correlated to the melting temperature of the oligoribonucleotide. […]

TAR RNA [5] = experiment: Electrophoretic Mobility Shift Assay (EMSA), non-denaturing PAGE; type: binding, HIV-1; details: 1 μM folded TAR, 0-50 μM compound, 2 h 37 °C, BPE buffer pH 7.4
Experimental: To further evaluate the interaction of B-CePs to TAR RNA, Electrophoretic Mobility Shift Assay (EMSA) was used as a simple tool to visualize the putative interaction of compound 1 with TAR. The RNA was folded in its hairpin secondary structure, incubated for 2 h at 37 °C with increasing concentrations of compound 1 (0, 1, 5, 10, 25, 35, 50 μM), and the reaction products were resolved by polyacrylamide gel electrophoresis (PAGE). Figure 3 provides the results obtained in non-denaturing PAGE.
Figure 3 Non-denaturing polyacrylamide gel electrophoresis (PAGE) (PAA 12%) in TBE 1× showing the concentration-dependence of the interaction of B-CeP 1 with TAR. Folded TAR hairpin 1 μM was incubated with increasing concentrations of compound (0, 1, 5, 10, 25, 35, 50 μM) for 2 h at 37 °C with a BPE buffer (pH 7.4).
Electrophoretic Mobility Shift Assay (EMSA) was used to assess the ability of compound 1 to directly interact to TAR RNA construct. Prior to incubation with compound, TAR RNA was heated to 95 °C for 5 min and then ice-cooled in order to assume the proper hairpin structure. TAR RNA construct (1 μM) was then incubated with increasing concentrations (from 0 to 50 μM) of B-CeP 1, at 37 °C for 2 h in 1× BPE buffer (pH 7.4). […] Fluorescence in gel system was detected on a Geliance 600 Imaging System (PerkinElmer, Waltham, MA, USA).

SMILES	IC50 [1]	Tm increase of TAR RNA (stabilization effect) (TAR RNA [4])	also measured
CC1(C)CC(Cl)CN(CCCCCCN2CC(Cl)CC(C)(C)C2)C1 (centres unmarked) [Compound 3]	3.55 ± 0.37 µM	–	–
CC1(C)CC(Cl)CN(CCCCCN2CC(Cl)CC(C)(C)C2)C1 (centres unmarked) [Compound 2]	2.75 ± 0.7 µM	–	Relative reactivity towards the TAR construct (comparison of ESI-MS spectra) (TAR RNA [2]; same B-CeP/TAR molar ratio (10 μM compound, 1 μM TAR)): most reactive; Effect of the longer linker on cell permeability and cytotoxicity ([3]; ref [26]): increases cell permeability and cytotoxicity
COC(=O)[C@@H](CCCCN1CC(Cl)CC(C)(C)C1)N1CC(Cl)CC(C)(C)C1 (some centres unmarked) [Compound 5]	4.78 ± 0.71 µM	much weaker stabilization effect	–
COC(=O)[C@H](CCCCN1CC(Cl)CC(C)(C)C1)N1CC(Cl)CC(C)(C)C1 (some centres unmarked) [Compound 4]	5.09 ± 0.05 µM	much weaker stabilization effect	–
CC1(C)CC(Cl)CN(CCCN2CC(Cl)CC(C)(C)C2)C1 (centres unmarked) [Compound 1]	4.75 ± 0.15 µM	–	Binding stoichiometries on TAR detected by ESI-MS (TAR RNA [2]; 1 μM TAR with 10 and 50 μM compound): up to five equivalents; Products of the reaction with TAR detected by ESI-MS (TAR RNA [2]; 1 μM TAR, 37 °C 2 h, BPE buffer): covalent adducts; Fragmentation of the oligoribonucleotide chain of TAR RNA (TAR RNA [2]; ESI spectrometry and gel electrophoresis): not detected; Cytotoxicity ([3]; ref [22],[25]): low cytotoxicity; Concentration at which binding events (band shift) reach a plateau (TAR RNA [5]): 25 µM
